# According to paper PMC4070910, “Cathepsin S Signals via PAR2 and Generates a Novel Tethered Ligand Receptor Agonist” (PLoS ONE, 2014):
# Entries after “also recorded” stand apart in the source; their conditions may differ.
# Tests used:
# PAR2 [1] = details: cited from earlier work; for PAR2 activation (in words): in vitro, plant proteases
# From the text: PAR2 signaling has been implicated in the development of inflammatory and bowel diseases, asthma, itch and pain. The receptor is expressed on many types of cells including keratinocytes, sensory neurons, fibroblasts, endothelial cells, and inflammatory cells, [3]. Consistent with this broad expression, PAR2 is involved in numerous physiologic and pathophysiologic processes in response to both endogenous and exogenous proteases.
# human PAR2 [2] = test: Fura-2 calcium imaging in HeLa cells transfected with PAR2 cDNA; type: cell-based; details: for Concentration-effect curve, calcium-dependent response (in words): peptides 1 nM - 1 mM, triplicate, Fura-2 ratiometric imaging
# Description: Human PAR2 cDNA was cloned as an Xho I-Hind III fragment (1206 bp) into pcDNA3.1(−). 10 µg of DNA were diluted into 0.5 ml of DMEM and mixed with 0.5 ml of DMEM containing 10 µl of Lipofectamine 2000 transfection reagent and incubated at room temperature for 20 minutes. HeLa cells were grown to confluence, trypsinized and 1×10^6 cells were pelleted in a 15 ml tube by centrifugation at 1000 rpm for 5 minutes. The DMEM-Lipofectamine 2000-DNA mixture (1 ml) was added to the cell pellet, resuspended gently and incubated at room temperature for 20 minutes. Four ml of complete DMEM with 10% FBS were added to the tube, mixed by inverting the tube several times, plated into a 96-well glass bottom plate at 20,000 cells/well, and placed in a 37°C CO2 incubator. HeLa cells transfected with vector alone or salmon sperm DNA (shown in the figures) were plated as a control. The medium was aspirated two days after transfection. Fura-2 was used as a ratiometric calcium-sensitive indicator as follows. 100 µl of complete DMEM containing 2 µM of Fura-2 were added to each well and left at room temperature in the dark for 1 hr. Following loading with Fura-2, the medium was aspirated and replaced with 90 µl of HEPES-buffered saline (20 mM HEPES, 115 mM NaCl, 5.4 mM KCl, 2 mM CaCl2, 0.8 mM MgCl2, 13.8 mM glucose, pH 7.4).
# Imaging was performed using a Zeiss Axiovert 200 M microscope platform equipped with a flipping filter wheel for ratiometric imaging. Axiovision software, version 4.6 was used for image analysis of the cells which were excited at 340 nm and 380 nm. Ten µl of peptide agonist were added at 20 seconds after the start of the excitation procedure. Images were taken every 5 seconds, including at zero time, during a 3-minute period or longer if required. The software later analyzed all images taken during each excitation period. Typically, ratiometric changes were measured in 10–20 cells in each image. An average of the fluorescence of the cells in each image was calculated and plotted against time in seconds.
# HeLa cells transfected with PAR2 cDNA were subjected to ratiometric imaging as described above with PAR2 peptides, SLIGRL, KVDGTS, and SLIGKVDGTS in addition to the reverse peptides LRGILS and STGDVK at concentrations from 1 nM - 1 mM. Each of the concentration-dependent readings was performed in triplicate. Maximum intensities at each of the dilutions were calculated and plotted against concentration using GraphPad/PRISM software version 6.0 (Irvine, CA). Error bars represent +/−SEM.
# [3] = system: cathepsin S in keratinocytes; details: cited from earlier work
# From the text: We have identified a new peptide ligand generated by cathepsin S cleavage of PAR2. […] Our findings support a mechanism by which an N-terminal tethered ligand generated by cathepsin S cleavage might propagate PAR2 signaling in keratinocytes, or other target cells, surrounding a primary focus of inflammation. A possible scenario with respect to cutaneous inflammation could be as follows: IFN-γ, ...
# cathepsin S = test: Cathepsin S digestion of the human PAR2 N-terminal peptide (LC/MS/MS); type: biochemical; details: cathepsin S 1 µM, pH 7.0, 37°C, 20 minutes; MS/MS sequencing
# Description: Recombinant human cathepsin S was produced as follows. The human cathepsin S proprotein coding region was isolated by PCR using the forward and reverse primers […] CCTG and […] and a template of plasmid DNA containing the entire coding sequence of human cathepsin S. The PCR product was cut with Nco I and Xho I, and cloned into the pTYB4 expression vector from New England Biolabs for expression in E.coli. Cells were grown in LB medium induced with 0.3 mM IPTG, harvested by centrifugation, resuspended in lysis buffer A (0.5 M NaCl, 0.05 M Tris, 5 mM EDTA, pH 8.0) and lysed in a French press. The lysate was centrifuged and the protein was found predominantly in inclusion bodies which were dissolved in buffer B (10 mM DTT and 8 M urea), and refolded in the presence of buffer B containing 0.7 M L-arginine, 0.01 M glutathione, 0.001 M glutathione disulfide, and 0.005 M EDTA as described. […] The specific activity of cathepsin S was assayed using Z-VVR-AMC in fluorimetric and Z-FR-pNA in colorimetric assays[22] and determined to be 10,000 mU/mg protein.
# A peptide comprising the N-terminus of PAR2, […], was dissolved in 50 mM Tris, pH 7.0, 0.1 M NaCl, 0.1 mM EDTA, and 0.01% Tween-20 to a concentration of 100 mM. […] The reaction samples were analyzed by the Harvard Microchemistry & Proteomics Analysis Facility (Cambridge, MA). […]
# PAR2 [4] = details: cited from earlier work
# From the text: Proteases can activate PARs but it has been hypothesized that they can also inactivate them. […] As the cathepsin S cleavage sites identified here are downstream o ...
# human PAR2 [5] = test: IP1 (IP-One HTRF) assay in PAR2-transfected HeLa cells; type: cell-based; details: 1 hour, 37°C; KVDGTS 100 µM, SLIGRL 10 µM, cathepsin S 1 µM; KVDGTS and SLIGRL after subtracting baseline values; cathepsin S 'in this particular experiment'
# Description: To determine the effect of PAR2 activation on Gq stimulation, we measured IP1, a downstream metabolite of IP3, using the IP-One HTRF assay from Cis Bio, Medford, MA. HeLa cells were transfected with salmon sperm DNA or PAR2 cDNA as described above, plated in 10 cm culture dishes and incubated at 37°C with 5% CO2. After 24 hours, the cells were trypsinized, counted, plated into 96-well plates at 80,000 cells/well and incubated for another 24 hours. The medium was replaced with a stimulation buffer containing LiCl, per the instructions of the manufacturer. Ligands, including cathepsin S (1 µM), KVDGTS (100 µM) and SLIGRL (10 µM) were added to wells and incubated at 37°C for 1 hour and IP1 levels determined. This assay was performed on multiple wells containing each ligand on three occasions. Error bars represent SEM.
# [6] = system: PKC (βII Ser660) phosphorylation in PAR2-transfected HeLa cells; test: Western blot for p-PKC (Ser660) in PAR2-transfected HeLa cells; type: cell-based, human; details: 10 minutes, room temperature; SLIGRL 10 µM, SLIGKVDGTS 10 µM, KVDGTS 100 µM, cathepsin S 1 µM
# Description: HeLa cells were transfected with PAR2 plasmid DNA as described above. Untransfected HeLa cells were plated as a control. Forty-eight hours after transfection, cells were rinsed with PBS three times. Transfected HeLa cells were incubated with either SLIGRL (10 µM), SLIGKVDGTS (10 µM), KVDGTS (100 µM), or cathepsin S (1 µM) at room temperature for 10 minutes. Untransfected HeLa cells were treated with SLIGRL (10 µM) in a similar manner. A subset of transfected HeLa cells remained untreated and served as a negative control. After incubation, cells were harvested, pelleted and lysed by sequential freeze-thaw cycles. Cell lysates were centrifuged at 4°C for 15 minutes. Supernatants were collected and protein concentrations were determined by Bradford assay. Equal amounts of cell lysates were loaded onto NuPAGE Novex Bis-Tris mini gels, electrophoresed and transferred to nitrocellulose membranes using standard protocols. The blot was first probed with rabbit anti-phospho-PKC (βII Ser660) antibody (Cell Signalling Technology, Danvers, MA), and later reprobed with a mouse anti-actin antibody to identify the control actin band at 42 kDa. Primary antibodies were labeled with HRP-conjugated donkey anti-rabbit antibody and HRP-conjugated donkey anti-mouse antibody, respectively, followed by detection of the position of the antigen on the blot.
substance,measurement,setting,value
ficin,PAR2 activation (in words),PAR2 [1],supporting activation
"STGDVK [KVDGTS reverse peptide, reference compound]","Concentration-effect curve, calcium-dependent response (in words)",human PAR2 [2],not active
IFN-γ: mediator of inflammation,induction of cathepsin S (in words),[3],potent inducer of cathepsin S in keratinocytes
"LRGILS [reverse peptide of SLIGRL, negative control, reference compound]","Concentration-effect curve, calcium-dependent response (in words)",human PAR2 [2],not active
KVDGTSHVTGKGVT,cleavage points (in words),cathepsin S,next most common sequence results in G at the P1 position
trypsin [reference compound],effect as first agent on calcium response to second agent (in words),"human PAR2 [2]; PAR2-transfected HeLa, KVDGTS 100 µM, cathepsin S 2 µM, papain 2 µM, trypsin 10 nM, second agent after up to 60 minutes, room temperature",failed to induce a calcium response at any time up to 60 minutes
same,PAR2 cleavage site preference (in words),PAR2 [4],cleave PAR2 primarily following arginine residues
"SLIGRL [positive control, reference compound]",intracellular calcium mobilization (in words),"PAR2 [1]; primary keratinocytes and various cell lines, no reference given",provokes transient intracellular calcium mobilization
same,calcium response to the substance as second agent after protease (in words),"human PAR2 [2]; PAR2-transfected HeLa, after cathepsin S, papain or trypsin, up to 60 minutes, room temperature",failed to induce a calcium response at any time up to 60 minutes
same,"Concentration-effect curve, calcium-dependent response (in words)",human PAR2 [2],curves for SLIGRL and SLIGKVDGTS overlapped
same,concentration at which active/effective,human PAR2 [2]; summary of these studies (discussion),10 µM
same,IP1 level,human PAR2 [5],~66 nM
same,PKC Ser660 phosphorylation (in words),[6],weaker effect
bromelain,PAR2 activation (in words),PAR2 [1],supporting activation
SLIGKVDGTS [decapeptide which encompasses SLIGKV and KVDGTS],"Concentration-effect curve, calcium-dependent response (in words)",human PAR2 [2],curves for SLIGRL and SLIGKVDGTS overlapped; also recorded: activity comparable to that of SLIGRL
same,PKC Ser660 phosphorylation (in words),[6],weaker effect
